Assay [1] has as its system Candida tropicalis CanTCDC345. The experiment in a line: Growth curves at breakpoint concentrations compared with culture results (optical AST). The format is cell-based. The following applies: clinical isolate CanTCDC345, confirmed for caspofungin within approximately 12 minutes. As for the experimental part: (§1) To prepare a spiked bacterial sample, 1 mL of an overnight culture was diluted into 25 mL of warm cation-adjusted Mueller Hinton broth, allowed to grow to log phase at 37 C in a shaking incubator, and counted using a hemocytometer. The bacteria were then diluted in additional warm broth to a final concentration of 1E5 to 8E5 CFU/mL. A 2-mL aliquot of the bacterial solution was added to a disposable 1-cm cuvette containing a pre-dispensed volume of water, diluent and antibiotic according to the experiment at hand. The fluids were mixed by pipetting. A no-antibiotic control was used in each experiment, which contained only the appropriate volume of water and diluent. A set of three cuvettes, such as in 41 or 43a, 43b or 43c, containing identical mixtures were assembled side-to-side into a three-centimeter light path and inserted into the prototype sensitivity module shown in FIGS. 2A and 2B. A total of four sets of cuvettes could be examined in the prototype at one time. The prototype maintains the cultures at 37 C with gentle agitation to mitigate the effects of bacterial settling. Optical transmissions through each set of cuvettes were taken every 5 seconds for the no-antibiotic control and the experimental cuvettes. The bacteria were allowed to grow from 10 minutes to two hours depending on the antibiotics and/or bacteria being tested. The final curves were analyzed to determine whether the bacteria were sensitive or resistant to each drug or drug combination.
(§2) In the proof-of-concept device used to generate the data provided in this example, a 3-cm light path and lasers at 405 nm and 532 nm were used. Antimicrobial resistance profiles of 17 clinical isolates of 11 uropathogens were followed from 20 minutes to three hours, against 8 antibiotics, both lytic and static.

Assay [2] concerns Enterococcus faecalis EfR100. Described as above. Format: cell-based. Conditions: clinical isolate EfR100, confirmed by growth curves within approximately 33 minutes. The method, then:
as §1, §2

For assay [3], the system named is Staphylococcus aureus SaR100. The assay is described as above. Format: cell-based. Conditions: clinical isolate SaR100, confirmed by growth curves within approximately 42 minutes. The method, then:
as §1, §2

Assay [4] relates to Pseudomonas aeruginosa PaH201. The assay is described as above. Format: cell-based. The following applies: clinical isolate PaH201, confirmed for ampicillin and ciprofloxacin within approximately 42 minutes. The method, then: as §1, §2
The subject of assay [5] is Escherichia coli EcUAH202. Described as above. Format: cell-based. The following applies: clinical isolate EcUAH202, confirmed for ampicillin and levofloxacin within approximately 7 minutes. The method, then:
as §1, §2

The subject of assay [6] is sterile urine sample spiked with clinical isolate EcUAH202. The following applies: EcUAH202 spiked into sterile urine; breakpoint concentrations; confirmed for ampicillin within approximately 5 minutes. As for the experimental part: as §1, with “The bacteria were then diluted in additional warm broth to a final concentration of 1E5 to 8E5 CFU/mL.” left out, “combination. […]” for “combination.”

In a further assay the test system is K. pneumoniae KpH201. Conditions: clinical isolate KpH201; breakpoint concentrations; confirmed by growth curves vs no-antibiotic control within approximately 20 minutes. As for the experimental part: as §1, with “The bacteria were allowed to grow from 10 minutes to two hours depending on the antibiotics and/or bacteria being tested.” left out, “combination. […]” for “combination.”

Regarding `CC[C@H](C)C[C@H](C)CCCCCCCCC(=O)N[C@H]1C[C@@H](O)[C@@H](NCCN)NC(=O)[C@@H]2[C@@H](O)CCN2C(=O)[C@H]([C@H](O)CCN)NC(=O)[C@H]([C@H](O)[C@@H](O)c2ccc(O)cc2)NC(=O)[C@@H]2C[C@@H](O)CN2C(=O)[C@H]([C@@H](C)O)NC1=O` [caspofungin], the “Culture results: sensitivity or resistance of the strain” value in assay [1] is recorded as “sensitivity”.

Regarding `CC1(C)S[C@@H]2[C@H](NC(=O)[C@H](N)c3ccccc3)C(=O)N2[C@H]1C(=O)O` [ampicillin], the “Culture results: sensitivity or resistance of the strain” value in assay [2] was “sensitivity”; in assay [3], “sensitivity”; in assay [4], “resistance”; in assay [5], “resistance”; in assay [6] it was “resistance”; with K. pneumoniae KpH201 it was “sensitivity”.

These data come from US20220111378A1, “METHODS AND SYSTEMS FOR DETERMINING TARGET SENSITIVITY TO A THERAPEUTIC FORMULA” (priority 2019, published 2022).
